Values of other authors in PMC7775502, “Molecular Screening Strategy to Identify a Non-invasive Delivery Mechanism for the Treatment of Middle Ear Disorders” (Frontiers in Medicine, 2020).

Tests used:
[1] = tested on: intact tympanic membrane (TM); settings: peptide phage, incubation 1 h on the exterior surface of the TM, ref Kurabi et al. ([26])
From the text: Table 1 The sequences and ME recovery of the trans-TM, 12-mer backbone peptides (TMT-2 and TMT-3) plus the top 18-mer peptide phages from the 18-mer screen. | column: Mean recovery from ME (PFUs)

[2] = tested on: intact TM of ex vivo ME bulla; settings: review of the authors' earlier work
Description: In order to learn more about the mechanisms of phage transport phenomena, several experiments were designed to evaluate the impact of concentration, temperature, and oxygen levels on transport across the TM. […] Next, we tested the sensitivity of transport to oxygen deprivation and temperature using the ex vivo, intact ME bulla. When ME recovery of phage TMT-3 was assessed at various times after death, transport was observed up to 6 h postmortem, after which it ceased. Wh ...

human TM = settings: in vitro two-chamber assay, discarded TM fragments from patients undergoing TM repair; ref [28]
From the text: (§1) We first tested trans-TM phage TMT-3 transport across TMs from NTHi-infected MEs of rats as well as from rats with normal MEs.

rabbit TM fragments = settings: in vitro two-chamber assay, uninfected MEs; ref [28]
From the text: as §1

rat TM = settings: in vitro two-chamber assay, ref [28]
From the text: as §1

guinea pig TM fragments = tested on: guinea pig TM fragments; design: method as in PMID 30087425; settings: in vitro two-chamber assay, uninfected MEs; ref [28]

Sequence	Mean recovery from ME (PFUs) [1]	other results
EGHLFPSADSTKTTHLTL [TMT-3(18)-1, M13 bacteriophage expressing 18-mer trans-TM peptide […] on pIII protein]	90,000 PFUs	
KISVYRSADSTKTTHLTL [TMT-3(18)-2, M13 bacteriophage expressing 18-mer trans-TM peptide […] on pIII protein]	40,000 PFUs	
LANNNLTLSPKMPGGGYW [TMT-2(18)-1, M13 bacteriophage expressing 18-mer trans-TM peptide […] on pIII protein]	120 PFUs	
SADSTKTTHLTL [TMT-3, M13 bacteriophage expressing 12-mer trans-TM backbone peptide […] on pIII protein]	10,800 PFUs	Transport at lowered bulla temperature ([2]; 4°C, transport over 1 h): almost entirely eliminated; Time after death up to which transport was observed ([2]; ME recovery of phage at various times postmortem, transport ceased afterwards): up to 6 h; Transport across human TM (human TM): comparable levels; Transport across uninfected rabbit TM fragments compared with other species (rabbit TM fragments): similar; Transport across TMs from NTHi-infected MEs versus normal MEs (rat TM; 1.5 mm chambers, rat TMs): no difference in transport; Transport across uninfected rat TM fragments compared with other species (rat TM; uninfected MEs): similar; Transport across uninfected guinea pig TM fragments compared with other species (guinea pig TM fragments): similar
SPTIFSTLSPKMPGGGYW [TMT-2(18)-2, M13 bacteriophage expressing 18-mer trans-TM peptide […] on pIII protein]	12,000 PFUs	
TEVTSRSADSTKTTHLTL [TMT-3(18)-3, M13 bacteriophage expressing 18-mer trans-TM peptide […] on pIII protein]	280 PFUs	
TLSPKMPGGGYW [TMT-2, M13 bacteriophage expressing 12-mer trans-TM backbone peptide […] on pIII protein]	5,900 PFUs	
VPQGATTLSPKMPGGGYW [TMT-2(18)-3, M13 bacteriophage expressing 18-mer trans-TM peptide […] on pIII protein]	3,000 PFUs	
